{"source": "patent US20230069722A1", "about": "“TUBULYSINS AND PROTEIN-TUBULYSIN CONJUGATES” (priority 2020, published 2023)", "parameters_in_all_cases": "species or system human", "key": {"C4-2 cells [1]": {"tested_on": "C4-2 cells", "assay": "ADC cell based killing assay, C4-2 cells (anti-STEAP2 ADCs)", "experimental": "(§1) To test the ability of the disclosed tubulysin payloads or prodrug payloads to kill human cell lines, an in vitro cytotoxicity assay can be performed. In vitro cytotoxicity of the disclosed payloads, as well as reference compounds, are evaluated using the CellTiter-Glo Assay Kit (Promega, Cat # G7573), in which the quantity of ATP present is used to determine the number of viable cells in culture. For the assay, C4-2, HEK293, or T47D cells are seeded at 4000 cells/well on Nunclon white 96-well plates in complete growth medium (DME high glucose:Ham's F12 at 4:1, 10% FBS, 100 units/ml Penicillin, 100 ug/ml streptomycin, 53 ug/ml glutatmine, 10 ug/ml insulin, 220 ng/ml biotin, 12.5 pg/ml T3, 12.5 ug/ml Adenine, 4 ug/ml transferrin for C42 cells; DME high glucose, 10% FBS, 100 units/ml Penicillin, 100 ug/ml streptomycin, 53 ug/ml glutatmine for HEK293; RPMI, 10% FBS, 100 units/ml Penicillin, 100 ug/ml streptomycin, 53 ug/ml glutatmine, 10 ug/ml insulin, 10 mM HEPEs, 200 nM Sodium Pyruvate for T47D cells) and grown overnight at 37° C. in 5% CO2. […] Relative luminescence units (RLU) can be determined on a Victor plate reader (PerkinElmer). The IC50 values are determined from a four-parameter logistic equation over a 10-point response curve (GraphPad Prism). […]"}, "C4-2 cells [2]": {"tested_on": "C4-2 cells", "assay": "Cell-based killing assay of payloads, C4-2 cells (CellTiter-Glo)", "experimental": "as §1"}, "HCT15 cells": {"tested_on": "HCT15 cells", "assay": "MDR cell based killing assay, HCT15 cells with or without Verapamil (CellTiter-Glo)", "settings": "IC50 without Verapamil divided by IC50 with Verapamil", "in_short": "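CellTiter-Glo luminescence after 5-day exposure gave viability of 1000 HCT15 cells per well, grown in RPMI/10% FBS ± 5 ug/mL Verapamil. Payload tested from 100 nM down to 15 pM in threefold steps; four-parameter logistic IC50 in molar; MDR shift expressed as −Verapamil/+Verapamil IC50 ratio.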"}, "[3]": {"settings": "at the maximum concentration tested"}}, "note": "Where a SMILES comes first, the peptide text is derived from it. [ ]: non-standard residue; d: D form. The star is where a group is joined. Dolaproine = CO[C@@H]([C@@H]1CCCN1)[C@@H](C)C(=O)O; Dil = CC[C@H](C)[C@H](NC)[C@@H](CC(=O)O)OC; X1 = C[C@@H](N*)[C@@H](O)c1ccccc1; NMeV = CN[C@H](C(=O)O)C(C)C", "data": [{"smiles": "CC[C@H](C)[C@@H]([C@@H](CC(=O)N1CCC[C@H]1[C@H](OC)[C@@H](C)C(=O)N[C@H](C)[C@@H](O)c1ccccc1)OC)N(C)C(=O)[C@@H](NC(=O)[C@@H](NC)C(C)C)C(C)C", "note": "[MMAE, Monomethyl auristatin E] (H-[NMeV]V[Dil][Dolaproine]-X1)", "values": [{"measurement": "IC50", "setting": "C4-2 cells [1]; ADCs and reference payload", "result": 0.22, "unit": "nM"}, {"measurement": "maximum percent killing, C4-2 cells", "setting": "C4-2 cells [1]; [3]", "result": 99, "unit": "%"}, {"measurement": "IC50", "setting": "C4-2 cells [2]; 5-day incubation", "result": 0.283, "unit": "nM"}, {"measurement": "maximum % cell killing, C4-2 cells", "setting": "C4-2 cells [2]; [3]", "result": 93.7, "unit": "%"}, {"measurement": "HCT-15 IC50/HCT-15+Verapamil IC50 ratio", "setting": "HCT15 cells", "result": 23.7}]}]}
